Test results: US10688119B2, “Inhibitors of PCSK9 for treatment of lipoprotein metabolism disorders” (Aarhus Universitet, priority 2015, dated 2020)
Entries after “also recorded” stand apart in the source; their conditions may differ. Where two headings read alike, the source gives them in different places.

What was measured:
LDLR in HepG2 cells [1] = assay: LDLR levels in HepG2 cells by Western blot/densitometry (PCSK9 induced LDLR degradation)
Protocol: (§2) Purified PCSK9 variants were tested in a cell assay to test their ability to induce degradation of LDLR compared to wild-type PCSK9. Induction of LDLR degradation was analyzed by incubation of HepG2 cells with wild type PCSK9 (WT) or the above PCSK9 mutants and LDLR levels were assessed by Western blotting. HepG2 cells were seeded at a density 250.000 cells per well in 12-well plates. […] Cells were harvested and lysed following 18 hours incubation and LDLR levels were assessed by Western blotting and quantification by densitometry.
The PCSK9 inhibitory effect of overnight incubation with suramin (0-200 μg/ml) was tested in HepG2 cells (FIG. 9 A-B).

HepG2 cells = assay: uptake of Bodipy-labelled LDL particles in HepG2 cells; assay type: cell-based, human; settings: suramin 200 μg/ml overnight, then 4 hours 10 ng/ml Bodipy LDL
Protocol: FIG. 12: Bar graphs showing the relative fluorescence signal in HepG2 cells after overnight incubation with suramin (200 μg/ml) following 4 hours incubation with 10 ng/ml LDL particles labeled with fluorescence dye Bodipy.

J774 macrophages = tested on: J774 macrophages; design: dose or concentration left out as unconfirmed; settings: cited from earlier work
apoE−/− mice = settings: 4-week treatment, cited from earlier work
LDLR in liver = assay: liver LDLR levels in mice after intravenous PCSK9 (Western blot); assay type: in vivo, mice (BALB6/cJRj); settings: for liver LDLR level / PCSK9 induced degradation of LDLR in vivo: 1 hour after PCSK9 10 μg, heparin 50 U or suramin 300 μg co-injected, heparinase I 30 U infused before
Protocol: To test the effect of enzymatic removal of heparan sulfate GAGs on PCSK9 activity in vivo 10-12 week-old male BALB6/cJRj mice were infused with heparinase I (30 U) administered through a tail vein catheter 5 min prior injection of PCSK9 (10 μg). In control mice the heparinase injection and/or the PCSK9 injection were replaced with an injection of 0.9% saline. During heparinase infusion, mice were lightly anaesthetized with isoflurane continuously administered through a mask.
Mice (BALB6/cJRj) were subjected to a single intravenous administration (tail vein) of 10 μg human recombinant PCSK9 alone or in combination with heparin (50 U). One hour post injection mice were sacrificed and liver tissues were collected.

PCSK9 = PCSK9 (Homo sapiens, UniProt Q8NBP7); assay: Microscale Thermophoresis (MST) equilibrium binding to PCSK9; settings: 100 nM labelled PCSK9, PBS+0.05% Tween-20; for Kd: read-out: KD (affinity for PCSK9, MST)
Protocol: PCSK9 was labeled using the MO-L003 Monolith Blue-NHS labeling kit (NanoTemper Technologies) and a labeling efficiency of 1:1 molar ratio of protein to dye was achieved. PCSK9 was applied at a final concentration of 100 nM. […] MST measurements were performed in standard-treated capillaries (NanoTemper Technologies) on a Monolith NT.115 instrument (NanoTemper Technologies) using 20% LED and 80% MST power. Laser on and off times were 5 s and 35 s, respectively. Negative controls were performed using 100 nM of labelled PCSK9 in MST buffer in all 16 capillaries under the same conditions as mentioned above. […] For each binding partner, the sigmoidal dose-response curves were fitted with GraphPad Prism 6 to yield an average KD value.

[2] = heparin affinity chromatography of PCSK9 and variants; assay type: binding; settings: conditioned media, Heparin Sepharose CL-6B beads
Protocol: Purified PCSK9 was loaded onto a 5 ml HiTrap Heparin HP column (GE Healthcare) in PBS. The column was connected to an Äkta Prime and washed with 5 column volumes of 10 mM NaH2PO4 (pH 7.4). PCSK9 was eluted using a linear gradient of 10 mM NaH2PO4 (pH 7.4) and 2 M NaCl and fractions were analyzed by SDS-PAGE. Based on the measured conductivity, the elution profile was transformed to a function of NaCl concentration using the transformation coefficient 0.065 mS/mM NaCl. PCSK9 was retained on the heparin column and eluted at a NaCl concentration of approximately 500 mM (FIG. 2E), indicating a strong and highly specific interaction with heparin.
(§1) In a different experiment, conditioned media from HepG2 cells were incubated with Heparin Sepharose CL-6B beads (GE Healthcare) in 10 mM NaH2PO4 (binding buffer). Following overnight incubation on a rotor at 4⊐ C, beads were washed in binding buffer before batch elution of heparin bound proteins in increasing concentration of NaCl. PCSK9 in input, flow through, and elution fractions were evaluated by Western blotting.
as §1, with “Conditioned” for “In a different experiment, conditioned”, “CHO” for “HepG2”, “cells transfected with PCSK9 variants of interest” for “cells”, “4° C.,” for “4⊐ C,”

LDLR in HepG2 cells [3] = assay: LDLR degradation in HepG2 cells induced by PCSK9 WT or mutant; assay type: cell-based, human; settings: 10 nM PCSK9, 18 hours
Protocol: as §2

[4] = tested on: cell surface PCSK9 on HepG2 cells; assay: surface PCSK9 immunostaining of non-permeabilized HepG2 cells stably expressing PCSK9; assay type: cell-based, human; settings: heparinase I 0.0002 UN/ml, 1 h
Protocol: We speculated that HSPG might be involved in the capture of PCSK9. Thus, we treated human hepatocyte-derived HepG2 cells stably expressing PCSK9 with heparinase I. The enzyme heparinase I cleaves heparan sulfate GAG chains at the 1,4 O-linkage between uronic acid and D-glucosamine, thereby removing cell surface heparan sulfate chains.
HepG2 cells stably transfected with PCSK9 were seeded at 50.000 cells per coverslip and incubated overnight before addition of heparinase I (Sigma Aldrich/H2519) in PBS (0.0002 UN/ml) or PBS alone. Cells were incubated for 1 h. at 37⊐ C, before fixation in 4% paraformaldehyd and immunostaining of non-permeabilized cells with primary and secondary antibodies. Nuclei were visualized with Hoechst dye (Sigma Aldrich). Images were acquired on a Zeiss LSM780.

[5] = target: T1, R93R96R97R104R105H139 PCSK9 mutant and variants (Homo sapiens, UniProt Q8NBP7, H139A/R104A/R105A/R93A/R96A/R97A); assay: immunoprecipitation of 35S-mutant PCSK9 and PCSK9 variants; assay type: binding; settings: 500 μl conditioned hybridoma media
T1 construct: expressed in transfected cells
Protocol: Western blot of GAPDH is shown as loading control. (B) Western Blot showing LDLR levels in liver of mice 1 hour afterintravenous administration of 10 μg PCSK9 alone or in combination with 50 U Heparin. 50 μg membrane preparations were loaded. As control is shown Western Blot for sortilin, a PCSK9 receptor previously shown not to be target of PCSK9 induced degradation. (C) Quantification of B) Bands were quantified by densitometry and dot plot show the individual level of each sample in percent of vehicle (0.9% NaCl) injected controls with mean values and SEM. […] (D) Autoradiography (16 h exposure) showing immunoprecipitation of native human ^35S labeled PCSK9 by serum (1 μl) from three rats immunized with DNA encoding rat PCSK9 with human HSPG binding domain. As negative controls were used preimmune serum from the animals. (E) Western Blot showing LDLR in HepG2 cells after overnight incubation with preimmune or immune IgG (1 μg/ml). […] (F) Autoradiography (16 h exposure) showing immunoprecipitation of human ^35S-PCSK9 by 24 individual mAbs (500 μl conditioned hybridoma media) selected in ELISA screening performed by Aldevron. […] (G) Bar graphs showing LDLR levels (average of 2-4 experiments with SEM) in HepG2 cells incubated with mAbs (1:10 dilution of conditioned hybridoma media) as analysed by Western Blot. Twelve individual mAb clones give an approximately two-fold increase LDLR. (H) Autoradiography (16 h exposure) showing immunoprecipitation of human ^35S-mutant PCSK9 (with R93R96R97R104R105H139 mutated to alanine residues) by 12 individual mAbs (500 μl conditioned hybridoma media) all showing PCSK9 inhibitory effect. As control was used a polyclonal antibody (pAb, AF3888 from R&D systems). […] As control was used R&D Systems AF3888 (pAb).
These 12 clones were tested to see whether they can bind an R93R96R97R104R105H139 PCSK9 mutant (FIG. 8H).

[6] = suramin 50 and PPADS 25 mg·kg-1·day-1

Sequence of PCSK9 (Q8NBP7 153-692): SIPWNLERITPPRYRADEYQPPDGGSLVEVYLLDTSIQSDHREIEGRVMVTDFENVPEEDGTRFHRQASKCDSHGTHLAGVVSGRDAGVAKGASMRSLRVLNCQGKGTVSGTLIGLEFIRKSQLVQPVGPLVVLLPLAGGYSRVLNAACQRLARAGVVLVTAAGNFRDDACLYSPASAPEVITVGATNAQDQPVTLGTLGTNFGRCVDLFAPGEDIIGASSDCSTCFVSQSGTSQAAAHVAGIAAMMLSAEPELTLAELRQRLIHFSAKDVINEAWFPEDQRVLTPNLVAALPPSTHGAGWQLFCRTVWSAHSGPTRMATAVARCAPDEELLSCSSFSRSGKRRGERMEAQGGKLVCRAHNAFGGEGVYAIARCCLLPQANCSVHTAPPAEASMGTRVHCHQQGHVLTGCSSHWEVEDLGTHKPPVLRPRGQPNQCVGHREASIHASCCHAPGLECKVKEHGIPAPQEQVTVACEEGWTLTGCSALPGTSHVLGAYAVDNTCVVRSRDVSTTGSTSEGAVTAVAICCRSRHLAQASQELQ

With `CO[C@H]1O[C@H](COS(=O)(=O)O)[C@@H](O[C@@H]2O[C@@H](C(=O)O)[C@@H](O[C@H]3O[C@H](COS(=O)(=O)O)[C@@H](O[C@@H]4O[C@H](C(=O)O)[C@@H](O[C@H]5O[C@H](COS(=O)(=O)O)[C@@H](O)[C@H](O)[C@H]5NS(=O)(=O)O)[C@H](O)[C@H]4O)[C@H](OS(=O)(=O)O)[C@H]3NS(=O)(=O)O)[C@H](O)[C@H]2OS(=O)(=O)O)[C@H](O)[C@H]1NS(=O)(=O)O` [Arixtra, Fondaparinux] the “LDLR level in HepG2 cells” value (LDLR in HepG2 cells [1]; Arixtra 25-250 μg/ml, 24 h) was “elevated level of LDLR” and the “LDLR level in HepG2 cells” value (LDLR in HepG2 cells [1]; Arixtra 25-250 μg/ml, 24 h, listed as Fondaparinux) was “increased levels of LDLR”.

For `Cc1ccc(C(=O)Nc2ccc(S(=O)(=O)O)c3cc(S(=O)(=O)O)cc(S(=O)(=O)O)c23)cc1NC(=O)c1cccc(NC(=O)Nc2cccc(C(=O)Nc3cc(C(=O)Nc4ccc(S(=O)(=O)O)c5cc(S(=O)(=O)O)cc(S(=O)(=O)O)c45)ccc3C)c2)c1` [suramin], the “uptake of fluorescently labelled LDL” value (HepG2 cells) is given as “increased cellular uptake of fluorescently labelled LDL particles; also recorded: increases the uptake of LDL two-fold”, the “block of UDP effect on iNOS and interleukin-6” value (J774 macrophages) is given as “blocked” and the plaque size (apoE−/− mice; suramin 50 and PPADS 25 mg·kg-1·day-1, listed as Suramin) is given as “reduce plaque size”. For the same molecule, the plaque size (apoE−/− mice; [6]) was “reduces plaque size”, the “liver LDLR level / PCSK9 induced degradation of LDLR in vivo” value (LDLR in liver) was “significantly higher level of LDLR” and the “LDLR level compared with statins” value (LDLR in HepG2 cells [1]; 100 μM suramin vs mevastatin and simvastatin, 24 and 48 hours) was “higher level of LDLR that cells incubated with statins”. For the same molecule, the “LDLR level up regulated” value (LDLR in HepG2 cells [1]; suramin 200 μg/ml, overnight) was 15 times and the Kd (PCSK9) was 190 µM.

For “Mutant R93: PCSK9 alanine substitution variant”, the “binding to heparin (affinity chromatography)” value (“binding to heparin” for short) [2] was “less affinity for heparin”.

For “Mutant R93R104R105H139A: PCSK9 alanine substitution variant”, the “binding to heparin” value [2] was “do not bind heparin; also recorded: did not bind to heparin”.

For dextran [non-sulfated dextran], the “KD (affinity for PCSK9, MST)” value (PCSK9) was “no affinity”.

With dextran sulphate [dextran sulfate] the “LDLR level in HepG2 cells” value (LDLR in HepG2 cells [1]; dextran sulphate 0-200 μg/ml, 24 hour) was “concentration dependent increase of LDLR”, the “LDLR level in HepG2 cells” value (LDLR in HepG2 cells [1]; dextran sulphate 0-200 μg/ml, 24 hour, listed as dextran sulphate) was “potently increase the cellular level of LDLR” and the “plateau of cellular LDLR compared to vehicle control” value (LDLR in HepG2 cells [1]; dose-dependent, HepG2 cells) was “around 400%”. For the same molecule, the Kd (PCSK9) was 180 µM.

In the case of “WT PCSK9: wild type human PCSK9 (SEQ ID NO: 1)”, the “binding to heparin” value [2] is reported as “bound heparin Sepharose”, the “LDLR levels in HepG2 cells incubated with PCSK9 variant” value (LDLR in HepG2 cells [3]) is reported as “significantly lower levels of LDLR” and the “LDLR level in liver in percent of vehicle injected controls” value (LDLR in liver; 1 hour after intravenous 10 μg PCSK9 alone or with 50 U Heparin, n=7 mice/group) is reported as 24.0±4.04%.

In the case of `Cc1nc(N=Nc2ccc(S(=O)(=O)O)cc2S(=O)(=O)O)c(COP(=O)(O)O)c(C=O)c1O` [PPADS, pyridoxal-phosphate-6-azophenyl-2′-4′-disulphonic acid], the “block of UDP effect on iNOS and interleukin-6” value (J774 macrophages) is given as “blocked”, the plaque size (apoE−/− mice; suramin 50 and PPADS 25 mg·kg-1·day-1, listed as PPDAS) is given as “reduce plaque size” and the plaque size (apoE−/− mice; [6]) is given as “reduces plaque size”.

B1: heparinase I: enzyme that cleaves heparan sulfate GAG chains (Sigma Aldrich/H2519) (protein, UniProt Q05819 22-384, looked up)
Heparin lyase I: QQKKSGNIPYRVNVQADSAKQKAIIDNKWVAVGINKPYALQYDDKLRFNGKPSYRFELKAEDNSLEGYAAGETKGRTELSYSYATTNDFKKFPPSVYQNAQKLKTVYHYGKGICEQGSSRSYTFSVYIPSSFPDNATTIFAQWHGAPSRTLVATPEGEIKTLSIEEFLALYDRMIFKKNIAHDKVEKKDKDGKITYVAGKPNGWKVEQGGYPTLAFGFSKGYFYIKANSDRQWLTDKADRNNANPENSEVMKPYSSEYKTSTIAYKMPFAQFPKDCWITFDVAIDWTKYGKEANTILKPGKLDVMMTYTKNKKPQKAHIVNQQEILIGRNDDDGYYFKFGIYRVGNSTVPVTYNLSGYSETAR
For B1, the “intensity of surface PCSK9 staining” value [4] was “marked decrease in the intensity of surface PCSK9 staining” and the “liver LDLR level / PCSK9 induced degradation of LDLR in vivo” value (LDLR in liver) was “completely protected LDLR from PCSK9-induced degradation; also recorded: completely inhibits PCSK9 induced degradation of LDLR”.

B2: mAb 8HA: rat monoclonal antibody against the HSPG binding domain; VH SEQ ID NO: 9, VK SEQ ID NO: 3 (antibody, V domains shown)
VH: QVTLKESGPGILQPSQTLSLTCSFSGFSLSSSGICVSWIRQPSGKGLEWLATICWEDSKGYNPSLKNRLTISKDTSNNQALLRITSVDTADTAIYYCARVYYWYFDFWGPGTMVTVSS
VL: DIVMTQSPSLLSASVGDRVTLSCKGSQNINNYLAWYQQKLGEAPKLLIYNTNSLQTGIPSRFSGSGSGTDCTLTIRSLQPEDVATYFCYQYNNGNTFGGGTKLELK
With B2 the “binding of R93R96R97R104R105H139 PCSK9 mutant (immunoprecipitation)” value [5] was “not able to bind this mutant” and the “increase of cellular LDLR” value (LDLR in HepG2 cells [1]; mAbs, 1:10 dilution of conditioned hybridoma media) was “approximately two fold”.
